Values quoted from earlier work, collected in US11167277B2, “Cu(I)-catalyzed azide-alkyne cycloadditions (CuAAC) ligands and methods for carrying out Cu(I)-catalyzed azide-alkyne cycloaddition reactions” (UNIVERSITY OF PITTSBURGH-OF THE COMMONWEALTH SYSTEM OF …, priority 2014, dated 2021).

System: Zebrafish embryos
Conditions: co-treatment with 1 mM CuSO4, 1.5 mM sodium ascorbate and 0.1 mM TBTA; toxicity attributed to copper(I)

c1ccc(Cn2cc(CN(Cc3cn(Cc4ccccc4)nn3)Cc3cn(Cc4ccccc4)nn3)nn2)cc1 [TBTA]
time beyond which Zebrafish embryos do not survive: ≤ 15 min
